“And” between values parts separate entries of the source, which are not always exact repeats. Identical values can stand only once. Like-named read-outs stand apart in the source and are kept apart here.
Columns and labels:
[1] = test system: passive cutaneous anaphylaxis (PCA); assay: Anti-passive cutaneous anaphylaxis (PCA) activity in rats (Test Example 2); format: in vivo, Wistar strain rats; conditions: Rattus norvegicus, N 10; for inhibition in vivo at 10 mg/kg: 10 mg/kg PO; for inhibition in vivo at 50 mg/kg: 50 mg/kg PO; for inhibition in vivo at 100 mg/kg: 100 mg/kg PO; for inhibition in vivo at 200 mg/kg: 200 mg/kg PO
Description: (§1) Wistar strain rats were sensitized with ovalbumin using aluminium hydroxide gel and Bordetella Pertussis vaccine as adjuvants. Dilutions of antiserum (16-fold and 32-fold) obtained by collecting blood samples 14 days later were administered subcutaneously in the dorsal skin of the rats of the same strain at the rate of 0.1 ml per spot, and the rats were grown for 48 hours. One hour after peroral administration of the sample solution, a mixture of antigen ovalbumin and Evans-blue dye was administered to the tail venous of the animal according to the ordinary procedure. Thirty minutes later, the animals were sacrificed by exsanguination, and the areas of blue spots (long diameter×short diameter) eliciting on the portion of the antiserum injection at the dorsal skin were measured to obtain the rate of inhibition based on the average value shown by the control animals.

[2] = Acute toxicity LD50 in mice (Test Example 8); conditions: mouse, in vivo, one week, Probit method
Description: ddy-Strain mice (male) and Wistar strain rats were used to obtain LD50 values.
According to the ordinary procedure, suspension or solution of test sample was administered to the animals. From the number of the died animals until one week after the administration, LD50 values were obtained by Probit method.

[3] = test system: passive cutaneous anaphylaxis (PCA); assay: Anti-passive cutaneous anaphylaxis activity (PCA) in rats (Test Example 9); format: in vivo; conditions: Rattus norvegicus, po, 10 animals
Description: as §1
This test was conducted in a manner similar to that in Test Example 2, except that the dilutions of antiserum were 12- and 24-folds.

[4] = Acute toxicity LD50 in ICR mice (Test Example 11); conditions: mouse, in vivo, one week, Provit method
Description: As test animals, ICR-strain mice (male) were used. According to the conventional procedure, suspension or solution of test sample was administered to the animals. From the number of the died animals until one week after the administration, LD50 values were obtained by Provit method.

[5] = test system: mast cell in abdominal cavity; assay: Release of histamine by dextran (T-500), mast cell in abdominal cavity (Test Example 12); format: cell-based, rat
Description: (§2) Collection of mast cells in abdominal cavity and thoracic cavity and sensitizing of cells were conducted in similar manners to those in Test Example 10, respectively.
(§3) The sample solution was treated with 105 microgramms/ml phosphatidylserin PBS solution (0.5 ml) and incubated at 37° C. for 30 minutes, followed by addition of 25 mg/ml dextran (T-500) PBS solution (0.5 ml) and further incubation for 15 minutes.
(§4) This is conducted in a manner similar to that in Test Example 10.

[6] = test system: Mast cell in thoracic cavity; assay: Release of histamine by dextran (T-500), mast cell in thoracic cavity (Test Example 12); format: cell-based, rat
Description: as §2, §3, §4

[7] = test system: mast cell in abdominal cavity; assay: Release of histamine by antigen DNP-Ascaris, mast cell in abdominal cavity (Test Example 12); format: cell-based, rat; conditions: 10^-3 M; stronger than DSCG
Description: as §2
(1) Preparation of DNP-Ascaris antiserum was conducted in manner similar to that in Test Example 6.
This is conducted in amanner similar to that in Test Example 10.
as §4

[8] = test system: mast cell in abdominal cavity; assay: Histamine release by antigen DNP-Ascaris, mast cell in abdominal cavity (Test Example 10); format: cell-based, rat; conditions: 10^-3 M
Description: (§5) Examination was made cn the activity of inhibition of histamine release from mast cell by antigen-antibody reaction.
(§6) Preparation of DNP-Ascaris antiserum was conducted in a manner similar to that in Test Example 6.
(§7) Heparin-containing PBS was injected into the abdominal cavity of rat which was sacrificed by bleeding, after which the abdomen was well massaged, and then peritoneal exudate was sampled. The same liquid was also injected into the thoracic cavity, and after shaking the breast for several minutes, the thoracic cavity liquid was sampled, which was purified by washing several times by centrifugation. The number of the mast cells contained in this liquid was measured and adjusted to a designated concentration. (Mast cells, 8.0×10^4 cells/ml).
(§8) To the cell suspension (4 ml, 9×10^5 cells/ml), anti-DNP-Ascaris rat serum (PCA titer, 32) (4 ml) was added, and the mixture was incubated in the presence of heparin at 37° C. for 2.5 hours. To the solution, 70 microgramms/ml phosphatidylserin PBS solution (0.5 ml) was added and the mixture was incubated at 37° C. for 12 minutes, after which 140 microgramms/ml antigen DNP-Ascaris PBS solution (0.5 ml) was added and the mixture was incubated further for 20 minutes.
After completion of the reaction, the reaction liquid was centrifuged (500 G, 10 min.) to obtain supernatant solution, and histamin in the supernatant solution was subjected to fluorometry by orthophthalal aldehyde method. The released amount of histamin in the control was shown as 100.

[9] = test system: Mast cell in thoracic cavity; assay: Histamine release by antigen DNP-Ascaris, mast cell in thoracic cavity (Test Example 10); format: cell-based; conditions: Rattus norvegicus, 20 min, 10^-3 M, read-out: released amount of histamin, Mast cell in thoracic cavity (control shown as 100)
Description: as §5, §6, §7
as §8, with “minutes. […]” for “minutes.”

[10] = test system: mast cell in abdominal cavity; assay: Inhibition of histamine release from mast cell in abdominal cavity in rat (Test Example 6); format: cell-based; conditions: for activity at 1000 µM / activity at 100 µM / activity at 10 µM / activity at 1 µM: Rattus norvegicus, Mast cell, 20 min, DNP-Ascaris 20 microgramms/ml, read-out: Amount of histamine released from peritoneal mast cell (Control = 100); for activity at 1000 µM: 10^-3 M; for activity at 100 µM: 10^-4 M; for activity at 10 µM: 10^-5 M; for activity at 1 µM: 10^-6 M
Description: Examination was made on the activity of inhibition of histamine release from mast cell by antigen-antibody reaction.
Swine ascaris extract solution was dinitrophenylated according to Aisen's method, dialysed, and lyophilized. The product was administered as antigen together with Bordetella Pertussis vaccine subcutaneously into the foot pad of rat. Eight days later, blood was taken to obtain antiserum. The PCA titer for this antiserum in rat was 32 to 64.
Heparin-containing PBS was injected intraperitoneally to rat which was sacrificed by exsanguination, after which the abdomen was well massaged to collect the injected PBS, which was purified by washing several times by centrifugation. The number of the mast cells contained in the solution was determined and adjusted to the designed concentration. As to method of sensitizing the cell, the above cell suspension (6 ml, 2×10^6 cells/ml) was treated with anti-DNP-Ascaris rat serum (PCA titer 32) (6 ml) and the mixture was incubated in the presence of hepain at 37° C. for 2 hours.
To the sensitized mast cell suspension the solution of the drug to be tested was added, and the mixture was preliminarily incubated at 37° C. for 12 minutes. After addition of the solution of antigen DNP-Ascaris (final concentration, 20 microgramms/ml), the mixture was further incubated for 20 minutes. After completion of the reaction, the solution was centrifuged (500 G, 10 min.) under a low temperature to obtain a supernatant solution. Histamine contained in the supernatant solution was subjected to fluorometry by crthophthalaldehyde method.

[11] = test system: anaphylaxis reaction to inhalated antigen; assay: Antigen inhalation test on passive sensitized guinea pig (experimental asthma model); format: in vivo; conditions: 200 mg/kg po
Description: The test compound and Tranilast were respectively suspended at the time of use in 5% gum arabic solution containing 0.1% Tween 80 at the rate of 40 mg/ml, and were perorally administered at the rate of 0.5 ml per 100 g body weight of the animal.
DSCG was dissolved at the time of use in physiological saline solultion for injection at the rate of 5.0 mg/ml, and was intravenously injected at the rate of 0.1 ml per 100 g body weight of the animal.
Anti-ovalbumin rabbit serum diluted with physiological saline solution for injection so as tc contain anti-ovalbumin rabbit antibody at the rate of 0.187 mg N/ml was intravenously administered to guinea pig at the rate of 0.1 ml per 100 g of body weight and it was passively sensitized.
Twenty-four hours later, the suspension of the compound prepared in (1) above was perorally or intravenously administered to the animal. The animal was put in the inhalation chamber one hour after the administration in case of the peroral administration and five minutes after the administration in case of the intravenous administration, and 2% physiological saline solution of antigen ovalbumin was inhaled by spraying. Over 10 minutes' period from the time immediately after the forced inhalation, the time until its fall attributed to anaphylaxis reaction was recorded, and the numbers of alive and dead animals after lapse of 10 minutes were also counted.

SRS-A = assay: Anti-SRS-A activity, contraction of guinea pig ileum by crude SRS-A solution; parameters: key to Anti-SRS-A activity (rate of inhibition against the contraction amount): % inhibition of SRS-A-induced ileum contraction
Description: A piece of lungs of guinea pig sensitized with ovalbumin was incubated with antigen ovalbumin at 37° C. for 20 minutes to obtain a supernatant solution, which was used as a crude SRS-A solution.
A piece of ileum of normal guinea pig was suspended in Magnus tube filled with Tyrode's solution and incubated with the solution of drug to be examined for a certain duration, and the contraction of the piece of ileum induced by adding the above crude SRS-A solution was determined on the basis of the contraction rate attributed to hystamine dihydrochloride 10^-6 M. The rate of inhibition against the contraction amount was taken as anti-SRS-A activity.

hyaluronidase = conditions: known from the literature; cited from earlier work
[12] = read-out: Average Inhibition Rate (%) Antiserum Dilution: × 16
[13] = read-out: Average Inhibition Rate (%) Antiserum Dilution: × 32
[14] = read-out: Inhibition, Anti-serum Dilution: × 12
[15] = read-out: Inhibition, Anti-serum Dilution: × 24
[16] = intravenous, read-out: LD50 Value (mg/kg of body weight) Intravenous administration
[17] = po, peroral, read-out: LD50 Value (mg/kg of body weight) Peroral administration

For `CCOC(=O)c1ccccc1NC(=O)C(=Cc1ccccc1)C(=O)Nc1ccccc1C(=O)OCC` [Compound 14, Diethyl 2,2'-[(1,3-dioxo-2-phenylmethylene-1,3-propanediyl)diimino]bisbenzoate], the inhibition in vivo at 10 mg/kg [1, 12] was 38.6%, the inhibition in vivo at 10 mg/kg [1, 13] was 38.7% and the inhibition in vivo at 50 mg/kg [1, 12] was 41.9%. For the same compound, the inhibition in vivo at 50 mg/kg [1, 13] was 72.2%, the inhibition in vivo at 100 mg/kg [1, 12] was 59.3% and the inhibition in vivo at 100 mg/kg [1, 13] was 85.1%. The LD50 at 168 h ([2]; iv, read-out: LD50 value (mg/kg body weight) Mouse i.v.) was 299 mg/kg, the LD50 at 168 h ([2]; po, read-out: LD50 value (mg/kg body weight) Mouse p.o.) was > 10000 mg/kg and the inhibition in vivo at 10 mg/kg [3, 14] was 29.8%. The inhibition in vivo at 10 mg/kg [3, 15] was 31.3%, the inhibition in vivo at 50 mg/kg [3, 14] was 36.7% and the inhibition in vivo at 50 mg/kg [3, 15] was 40.5%. The LD50 at 168 h [4, 16] was 347 mg/kg, the “histamine release inhibiting activity, dextran (T-500) (in words)” value ([5]; 10^-4 and 10^-3 M, almost the same as DSCG) was “histamine release inhibiting activities” and the activity at 1000 µM ([5]; Rattus norvegicus, Mast cell, 0.25 h, 10^-3 M, read-out: Effect on release of histamine by dextran (T-500), Mast cell in abdominal cavity (control 100)) was 40.2%. The activity at 100 µM ([5]; Rattus norvegicus, Mast cell, 0.25 h, 10^-4 M, read-out: Effect on release of histamine by dextran (T-500), Mast cell in abdominal cavity (control 100)) was 94.5%, the “Effect on release of histamine by dextran (T-500), Mast cell in thoracic cavity (control 100)” value ([6]; 10^-4, 15 min) was 55.6 and the activity at 1000 µM ([6]; Rattus norvegicus, Mast cell, 0.25 h, 10^-3 M, read-out: Effect on release of histamine by dextran (T-500), Mast cell in thoracic cavity (control 100)) was 42.2%. For the same compound, the “histamine release inhibiting activity, antigen DNP-Ascaris (in words)” value [7] was “histamine release inhibiting activity”.
Work on `COC(=O)c1ccccc1NC(=O)C(=Cc1ccccc1)C(=O)Nc1ccccc1C(=O)OC` [Compound 51] yielded an inhibition in vivo at 10 mg/kg [3, 14] of 28.1%, an inhibition in vivo at 10 mg/kg [3, 15] of 30.3% and an inhibition in vivo at 50 mg/kg [3, 14] of 34.2%. For the same compound, the inhibition in vivo at 50 mg/kg [3, 15] was 37.5%, the “inhibition of release of histamine from mast cells in abdominal and thoracic cavity (in words)” value [8] was “action of inhibiting release of histamine” and the activity at 1000 µM ([8]; Rattus norvegicus, Mast cell, 20 min, read-out: released amount of histamin, Mast cell in abdominal cavity (control shown as 100)) was 50.4%. For the same compound, the activity at 1000 µM [9] was 75.1%, the LD50 at 168 h [4, 17] was ≥ 8000 mg/kg and the LD50 at 168 h [4, 16] was 238 mg/kg.
Compound `O=c1oc(C(=Cc2ccccc2)c2nc3ccccc3c(=O)o2)nc2ccccc12` [Compound 52, 2,2'-phenylethenilidenebis(3,1-benzoxazine-4-one)] has an inhibition in vivo at 10 mg/kg [1, 12] of 20.6%, an inhibition in vivo at 10 mg/kg [1, 13] of 29.4% and an inhibition in vivo at 50 mg/kg [1, 12] of 37.9%. It also gave an inhibition in vivo at 50 mg/kg [1, 13] of 38.3%, an inhibition in vivo at 100 mg/kg [1, 12] of 45% and an inhibition in vivo at 100 mg/kg [1, 13] of 47.1%. The activity at 1000 µM [10] was 21%, the activity at 100 µM [10] was 60% and the activity at 10 µM [10] was 68%. The activity at 1 µM [10] was 70%, the “inhibition of release of histamine from the mast cell (in words)” value ([10]; even at the low concentration of 10^-6 M) was “inhibiting release of histamine” and the LD50 at 168 h [4, 17] was > 10000 mg/kg. It also gave an LD50 at 168 h [4, 16] of 319 mg/kg.
With `COc1ccc(/C=C/C(=O)Nc2ccccc2C(=O)O)cc1OC` [Tranilast, reference compound] the inhibition in vivo at 200 mg/kg [1, 12] was 1.8%, the inhibition in vivo at 200 mg/kg [1, 13] was 15.8% and the “Extended rate (%)” value [11] was -3.0%. For the same compound, the “preventive effect on anaphylaxis reaction (in words)” value [11] was “no activity”, the “Average time for falling Mean ± S.E.” value ([11]; N 5) was 150.8 ± 14.8 s and the “Required time (sec.) for falling and Number of death (#), single animals” value ([11]; N 5, observed 10 minutes, # shows death) was 116 s and 126 s and 141 s and 181 s and 190 s. For the same compound, the “Anti-SRS-A activity (rate of inhibition against the contraction amount)” value (SRS-A; 10^-3 M) was 0, the “Anti-SRS-A activity (rate of inhibition against the contraction amount)” value (SRS-A; 10^-4 M) was 0 and the “Anti-SRS-A activity (rate of inhibition against the contraction amount)” value (SRS-A; 10^-5 M) was 0. The “Anti-SRS-A activity (rate of inhibition against the contraction amount)” value (SRS-A; 10^-6 M) was 0, the “anti-SRS-A activity (in words)” value (SRS-A; compound 11 at a concentration of 10^-3 M) was “no activity” and the activity at 1000 µM [10] was 29%. It also gave an activity at 100 µM [10] of 67%, an activity at 10 µM [10] of 95% and an activity at 1 µM [10] of 95%. For the same compound, the inhibition in vivo at 200 mg/kg [3, 14] was 2.1%, the inhibition in vivo at 200 mg/kg [3, 15] was 10.7% and the “effect on hyaluronidase activity (in words)” value (hyaluronidase) was “inhibit hyaluronidase activity”.
For polymixin B, the “effect on hyaluronidase activity (in words)” value (hyaluronidase) is listed as “activate hyaluronidase”.

From patent publication US4822791A, “Pharmaceutical compositions of-2,2-1,1-[bis-2,2'-(3,1-benzoxazin-4-one)9 ethylenes” (priority 1984, dated 1989)
